Measured values published in patent US20260184707A1, “PHARMACEUTICAL COMPOUNDS FOR THE TREATMENT OF COMPLEMENT MEDIATED DISORDERS” (ALEXION PHARMACEUTICALS, INC., priority 2022, published 2026).

Target: T1, Human complement C1s enzyme (Homo sapiens, UniProt P09871)
T1 construct: purified from human serum, Complement Technology, Inc; purchased Complement Technology, Inc; host or cells: human serum (plasma-derived native protein)
T1 sequence (P09871 438-688 limits assumed): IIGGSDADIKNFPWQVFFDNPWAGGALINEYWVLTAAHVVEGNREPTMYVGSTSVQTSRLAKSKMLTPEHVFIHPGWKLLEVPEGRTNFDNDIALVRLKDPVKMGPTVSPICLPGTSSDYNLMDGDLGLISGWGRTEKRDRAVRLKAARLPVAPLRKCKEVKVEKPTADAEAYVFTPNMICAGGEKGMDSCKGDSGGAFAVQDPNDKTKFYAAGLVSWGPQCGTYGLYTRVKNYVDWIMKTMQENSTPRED
T1 sequence (P09871 16-437 partner limits assumed): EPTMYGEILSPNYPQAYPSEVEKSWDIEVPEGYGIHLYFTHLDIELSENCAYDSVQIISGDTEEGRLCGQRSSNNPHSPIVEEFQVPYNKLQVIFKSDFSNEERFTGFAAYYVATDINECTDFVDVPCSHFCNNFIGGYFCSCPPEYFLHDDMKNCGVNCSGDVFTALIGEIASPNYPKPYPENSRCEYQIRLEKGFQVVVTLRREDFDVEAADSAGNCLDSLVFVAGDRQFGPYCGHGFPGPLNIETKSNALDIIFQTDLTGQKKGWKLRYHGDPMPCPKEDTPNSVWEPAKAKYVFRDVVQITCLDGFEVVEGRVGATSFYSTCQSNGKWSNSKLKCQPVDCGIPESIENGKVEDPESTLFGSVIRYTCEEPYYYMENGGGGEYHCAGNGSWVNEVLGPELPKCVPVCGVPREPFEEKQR
Experiment: Human C1s enzyme assay
Assay type: biochemical
Details: human complement C1s enzyme 1.16 nM, substrate Z-L-Lys-SBzl, A405; read-out: IC50 (Stars)
Outline: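 Thioesterase activity followed colorimetrically (DTNB, A405, 30-s reads) using 100 μM Z-L-Lys-SBzl substrate. Enzyme, human serum-derived C1s at 1.16 nM final, was incubated with test compound for 5 min, room temperature, pH 7.5 Tris buffer with 1 M NaCl. Rate-versus-concentration data fitted by nonlinear regression for IC50.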

Row | Compound | IC50 [nM]
1 | COc1cc(C(=O)Nc2cnc(-c3ccccc3)n(CC(=O)NCc3cc4cnccc4[nH]3)c2=O)ccc1-c1ccccc1 [Compound 115, N-(1-(2-(((1H-pyrrolo[3,2-c]pyridin-2-yl)methyl)amino)-2-oxoethyl)-6-oxo-2-phenyl-1,6-dihydropyrimidin-5-yl)-2-methoxy-[1,1′-biphenyl]-4-carboxamide] | < 100
2 | O=C(Cn1c(-c2ccccc2)ncc(NCCCc2ccc(C3(F)COC3)cc2)c1=O)NCc1cc2cnccc2[nH]1 [Compound 116, N-((1H-pyrrolo[3,2-c]pyridine-2-yl)methyl)-2-(5-((3-(4-(3-fluorooxetan-3-yl)phenyl)propyl)amino)-6-oxo-2-phenylpyrimidin-1(6H)-yl)acetamide] | < 100
3 | O=C(Cn1c(-c2cccc(F)c2)ncc(NCc2ccc3oc4ccccc4c3c2)c1=O)NCc1cc2cnccc2[nH]1 [Compound 117, N-((1H-pyrrolo[3,2-c]pyridin-2-yl)methyl)-2-(5-((dibenzo [b,d]furan-2-ylmethyl)amino)-2-(3-fluorophenyl)-6-oxopyr-imidin-1(6H)-yl)acetamide] | < 100
4 | O=C(Cn1c(-c2ccc(Cl)cc2)ncc(NCc2ccc3oc4ccccc4c3c2)c1=O)NCc1cc2cnccc2[nH]1 [Compound 118, N-((1H-pyrrolo[3,2-c]pyridin-2-yl)methyl)-2-(2-(4-chloro-phenyl)-5-((dibenzo[b,d]furan-2-ylmethyl)amino)-6-oxopyr-imidin-1(6H)-yl)acetamide] | < 100
5 | COc1ccc(-c2ncc(NCc3ccc4oc5ccccc5c4c3)c(=O)n2CC(=O)NCc2cc3cnccc3[nH]2)cc1 [Compound 119, N-((1H-pyrrolo[3,2-c]pyridin-2-yl)methyl)-2-(5-((dibenzo [b,d]furan-2-ylmethyl)amino)-2-(4-methoxyphenyl)-6-oxo-pyrimidin-1(6H)-yl)acetamide] | < 100
6 | O=C(Cn1c(-c2ccccc2F)ncc(NCc2ccc3oc4ccccc4c3c2)c1=O)NCc1cc2cnccc2[nH]1 [Compound 120, N-((1H-pyrrolo[3,2-c]pyridin-2-yl)methyl)-2-(5-((dibenzo [b,d]furan-2-ylmethyl)amino)-2-(2-fluorophenyl)-6-oxopyr-imidin-1(6H)-yl)acetamide] | < 100
7 | O=C(Cn1c(-c2ccc(F)cc2)ncc(NCc2ccc3oc4ccccc4c3c2)c1=O)NCc1cc2cnccc2[nH]1 [Compound 123, N-((1H-pyrrolo[3,2-c]pyridine-2-yl)methyl)-2-(5-((dibenzo[b,d]furan-2-ylmethyl)amino)-2-(4-fluorophenyl)-6-oxopyrimidin-1(6H)-yl)acetamide] | < 100
8 | O=C(Cn1c(-c2ccc(OC3CS(=O)(=O)C3)cc2)ncc(NCCCc2ccccc2)c1=O)NCc1cc2cnccc2[nH]1 [Compound 124, N-((1H-pyrrolo[3,2-c]pyridine-2-yl)methyl)-2-(2-(4-((1,1-dioxidothietan-3-yl)oxy)phenyl)-6-oxo-5-((3-phenylpropyl)amino)pyrimidin-1(6H)-yl)acetamide] | < 100
9 | O=C(Cn1c(-c2ccc(O[C@@H]3CO[C@H]4[C@@H]3OC[C@H]4O)cc2)ncc(NCCCc2ccccc2)c1=O)NCc1cc2cnccc2[nH]1 [Compound 125, N-((1H-pyrrolo[3,2-c]pyridine-2-yl)methyl)-2-(2-(4-(((3R,3aR,6R,6aR)-6-hydroxyhexahydrofuro[3,2-b]furan-3-yl)oxy)phenyl)-6-oxo-5-((3-phenylpropyl)amino)pyrimidin-1(6H)-yl)acetamide] | < 100
10 | C[C@@H](Nc1cnc(-c2ccccc2)n(CC(=O)NCc2cc3cnccc3[nH]2)c1=O)c1ccc2oc3ccccc3c2c1 [Compound 126, (R)-N-((1H-pyrrolo[3,2-c]pyr-idin-2-yl)methyl)-2-(5-((1-(dibenzo[b,d]furan-2-yl)ethyl)-amino)-6-oxo-2-phenylpyrimi-din-1(6H)-yl)acetamide] | < 100
11 | C[C@H](Nc1cnc(-c2ccccc2)n(CC(=O)NCc2cc3cnccc3[nH]2)c1=O)c1ccc2oc3ccccc3c2c1 [Compound 127, (S)—N-((1H-pyrrolo[3,2-c]pyridine-2-yl)methyl)-2-(5-((1-(dibenzo[b,d]furan-2-yl)ethyl)amino)-6-oxo-2-phenylpyrimidin-1(6H)-yl)acetamide] | < 100
12 | COc1c(NC(=O)c2ccc(-c3ccccc3)s2)ccc(-c2ccccc2)c1CC(=O)NCc1cc2cnccc2[nH]1 [Compound 129, N-(2-(2-(((1H-Pyrrolo[3,2-c]pyridine-2-yl)methyl)amino)-2-oxoethyl)-3-methoxy-[1,1′-biphenyl]-4-yl)-5-phenylthiophene-2-carboxamide] | > 1000
13 | O=C(Cn1c(-c2ccc(OC3COC3)cc2)ncc(NCc2ccc3oc4ccccc4c3c2)c1=O)NCc1cc2cnccc2[nH]1 [Compound 130, N-((1H-pyrrolo[3,2-c]pyridine-2-yl)methyl)-2-(5-((dibenzo[b,d]furan-2-ylmethyl)amino)-2-(4-(oxetan-3-yloxy)phenyl)-6-oxopyrimidin-1(6H)-yl)acetamide] | < 100
14 | CS(=O)(=O)c1ccc(-c2ncc(NCc3ccc4oc5ccccc5c4c3)c(=O)n2CC(=O)NCc2cc3cnccc3[nH]2)cc1 [Compound 134, N-((1H-pyrrolo[3,2-c]pyridin-2-yl)methyl)-2-(5-((dibenzo [b,d]furan-2-ylmethyl)amino)-2-(4-(methylsulfonyl)phenyl)-6-oxopyrimidin-1(6H)-yl)-acetamide] | < 100
15 | O=C(Cn1c(-c2ccc(C(F)(F)F)cc2)ncc(NCc2ccc3oc4ccccc4c3c2)c1=O)NCc1cc2cnccc2[nH]1 [Compound 135, N-((1H-pyrrolo[3,2-c]pyridin-2-yl)methyl)-2-(5-((dibenzo [b,d]furan-2-ylmethyl)amino)-6-oxo-2-(4-(trifluoromethyl)-phenyl)pyrimidin-1(6H)-yl)-acetamide] | < 100
16 | O=C(Cn1c(-c2ccc(OC(F)(F)F)cc2)ncc(NCc2ccc3oc4ccccc4c3c2)c1=O)NCc1cc2cnccc2[nH]1 [Compound 136, N-((1H-pyrrolo[3,2-c]pyridin-2-yl)methyl)-2-(5-((dibenzo [b,d]furan-2-ylmethyl)amino)-6-oxo-2-(4-(trifluoromethoxy)-phenyl)pyrimidin-1(6H)-yl)-acetamide] | < 100
17 | O=C(Cn1c(-c2ccc(OC3COC3)cc2)ncc(NCc2ccc3c(c2)-c2ccccc2C3(F)F)c1=O)NCc1cc2cnccc2[nH]1 [Compound 138, N-((1H-pyrrolo[3,2-c]pyridin-2-yl)methyl)-2-(5-(((9,9-difluoro-9H-fluoren-3-yl)meth-yl)amino)-2-(4-(oxetan-3-yl-oxy)phenyl)-6-oxopyrimidin-1(6H)-yl)acetamide] | < 100
18 | O=C(Cn1c(-c2ccccc2)ncc(NCc2ccc3oc4ccccc4c3c2)c1=O)NCc1cc2cnccc2s1 [Compound 141, 2-(5-((Dibenzo[b,d]furan-2-ylmethyl)amino)-6-oxo-2-phenylpyrimidin-1(6H)-yl)-N-(thieno[3,2-c]pyridin-2-ylmethyl)acetamide] | < 100
19 | O=C(Cn1c(-c2ccccc2)ncc(NCc2ccc3oc4ccccc4c3c2)c1=O)NCc1cc2c(s1)CCNC2 [Compound 142, 2-(5-((dibenzo[b,d]furan-2-ylmethyl)amino)-6-oxo-2-phenylpyrimidin-1(6H)-yl)-N-((4,5,6,7-tetrahydrothieno[3,2-c]pyridine-2-yl)methyl)acetamide] | < 100
20 | O=C(Cn1c(-c2ccccc2)ncc(NCc2ccc3oc4ccccc4c3c2)c1=O)NCc1cc2c(s1)CNCC2 [Compound 143, 2-(5-((dibenzo[b,d]furan-2-yl-methyl)amino)-6-oxo-2-phen-ylpyrimidin-1(6H)-yl)-N-((4,5,6,7-tetrahydrothieno [2,3-c]pyridin-2-yl)methyl)-acetamide] | < 100
21 | O=C(Cn1c(-c2ccccc2)ncc(NCc2ccc3oc4ccccc4c3c2)c1=O)NCc1cc2cnccn2c1 [Compound 144, 2-(5-((dibenzo[b,d]furan-2-ylmethyl)amino)-6-oxo-2-phenylpyrimidin-1(6H)-yl)-N-(pyrrolo[1,2-a]pyrazin-7-ylmethyl)acetamide] | > 1000
22 | O=C(Cn1c(-c2ccc(NC(=O)CO)cc2)ncc(NCc2ccc3oc4ccccc4c3c2)c1=O)NCc1cc2cnccc2[nH]1 [Compound 147, N-((1H-pyrrolo[3,2-c]pyridine-2-yl)methyl)-2-(5-((dibenzo[b,d]furan-2-ylmethyl)amino)-2-(4-(2-hydroxyacetamido)phenyl)-6-oxopyrimidin-1(6H)-yl)acetamide] | < 100
23 | O=C(Cn1c(-c2ccc(N3CCCC3=O)cc2)ncc(NCc2ccc3oc4ccccc4c3c2)c1=O)NCc1cc2cnccc2[nH]1 [Compound 153, N-((1H-pyrrolo[3,2-c]pyridin-2-yl)methyl)-2-(5-((dibenzo [b,d]furan-2-ylmethyl)amino)-6-oxo-2-(4-(2-oxopyrrolidin-1-yl)phenyl)pyrimidin-1(6H)-yl)acetamide] | < 100
